# Measured values published in patent US20260078103A1, “ISOQUINOLONES AS PI3K INHIBITORS” (OnKure, Inc., priority 2022, published 2026).
# Tested on: T47D cells expressing mutant PI3Ka (H1047R)
# Experiment: In vitro cell proliferation, T47D cells (CellTiter-Glo)
# Format: cell-based
# Conditions: Homo sapiens, T47D, 72 h, inhibition of proliferation, read-out: Avg T-47D EC50
# Method in brief: (§1)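 T47D (PI3Kα H1047R; RPMI, 10% FBS, insulin 0.2 units/mL) or SKBR3 (WT PI3Kα; McCoys 5a, 10% FBS) cells seeded at 1,500 cells/well on 10-point compound dilutions, grown 72 h at 37 °C. CellTiter-Glo luminescence; inhibition normalised to 0.1% DMSO and 10 uM alpelisib, EC50 from four-parameter fit.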
row,SMILES,EC50
1,"Cc1cc([C@@H](C)Nc2cccc(F)c2C(=O)O)c2cc(C3C[C@H]3C)n(C)c(=O)c2c1 (single isomer, unassigned) [Example 355]",1 to 500 nM
2,"Cc1cc([C@@H](C)Nc2ccccc2C(=O)O)c2cc([C@H]3C[C@@H]3C(C)(C)O)n(C)c(=O)c2c1 (single isomer, unassigned) [Example 373]",1 to 500 nM
3,"Cc1cc([C@@H](C)Nc2ccccc2C(=O)O)c2cc(C3CC3(F)F)n(C)c(=O)c2c1 (single isomer, unassigned) [Example 384]",1 to 500 nM
4,"C[C@@H](Nc1cccc(F)c1C(=O)O)c1cc(F)cc2c(=O)n(C)c(C3C[C@@H]3C(F)(F)F)cc12 (single isomer, unassigned) [Example 427]",500 to 2000 nM
5,"C[C@@H](Nc1ccccc1C(=O)O)c1cc(F)cc2c(=O)n(C)c(C3C[C@@H]3C3CC3)cc12 (single isomer, unassigned) [Example 449]",1 to 500 nM
6,"C[C@@H](Nc1ccccc1C(=O)O)c1cc(F)cc2c(=O)n(C)c(C3C[C@@H]3C(F)(F)F)cc12 (single isomer, unassigned) [Example 451]",1 to 500 nM
7,"C[C@@H](Nc1cccc(F)c1C(=O)O)c1cc(F)cc2c(=O)n(C)c(C3C[C@@H]3C(F)F)cc12 (single isomer, unassigned) [Example 475]",500 to 2000 nM

# Same assay, conditions: inhibition of proliferation, 72 hours, read-out: Avg T-47D EC50
row,SMILES,EC50
1,"Cc1cc([C@@H](C)Nc2ccccc2C(=O)O)c2cc(C3C[C@H]3C(C)C)n(C)c(=O)c2c1 (single isomer, unassigned) [Example 312]",1 to 500 nM
2,"Cc1cc([C@@H](C)Nc2ccccc2C(=O)O)c2cc(C3C[C@H]3C)n(C)c(=O)c2c1 (single isomer, unassigned) [Example 313]",1 to 500 nM
3,"COC[C@@H]1CC1c1cc2c([C@@H](C)Nc3ccccc3C(=O)O)cc(C)cc2c(=O)n1C (single isomer, unassigned) [Example 314]",1 to 500 nM
4,"Cc1cc([C@@H](C)Nc2ccccc2C(=O)O)c2cc(C3C[C@H]3C3CC3)n(C)c(=O)c2c1 (single isomer, unassigned) [Example 315]",1 to 500 nM
5,"Cc1cc([C@@H](C)Nc2cccc(F)c2C(=O)O)c2cc(C3C[C@H]3C)n(C)c(=O)c2c1 (single isomer, unassigned) [Example 356]",1 to 500 nM
6,"Cc1cc(C(C)Nc2ccccc2C(=O)O)c2c(F)c(C3=CCN(CC(F)(F)F)CC3)n(C)c(=O)c2c1 (single isomer, unassigned) [Example 359]",1 to 500 nM
7,"Cc1cc(C(C)Nc2ccccc2C(=O)O)c2c(F)c(C3=CCN(CC(F)(F)F)CC3)n(C)c(=O)c2c1 (single isomer, unassigned) [Example 360]",2000 to 15000 nM

# Tested on: SKBR3 cells express WT PI3Ka
# Experiment: In vitro cell proliferation, SKBR3 cells (CellTiter-Glo)
# Format: cell-based
# Conditions: Homo sapiens, SK-BR-3, 72 h, inhibition of proliferation
# Method in brief: as §1
row,SMILES,EC50
1,"Cc1cc([C@@H](C)Nc2cccc(F)c2C(=O)O)c2cc(C3C[C@H]3C)n(C)c(=O)c2c1 (single isomer, unassigned) [Example 355]",> 15000 nM
2,"Cc1cc([C@@H](C)Nc2ccccc2C(=O)O)c2cc([C@H]3C[C@@H]3C(C)(C)O)n(C)c(=O)c2c1 (single isomer, unassigned) [Example 373]",> 15000 nM
3,"Cc1cc([C@@H](C)Nc2ccccc2C(=O)O)c2cc(C3CC3(F)F)n(C)c(=O)c2c1 (single isomer, unassigned) [Example 384]",> 15000 nM
4,"C[C@@H](Nc1cccc(F)c1C(=O)O)c1cc(F)cc2c(=O)n(C)c(C3C[C@@H]3C(F)(F)F)cc12 (single isomer, unassigned) [Example 427]",> 15000 nM
5,"C[C@@H](Nc1ccccc1C(=O)O)c1cc(F)cc2c(=O)n(C)c(C3C[C@@H]3C3CC3)cc12 (single isomer, unassigned) [Example 449]",> 15000 nM
6,"C[C@@H](Nc1ccccc1C(=O)O)c1cc(F)cc2c(=O)n(C)c(C3C[C@@H]3C(F)(F)F)cc12 (single isomer, unassigned) [Example 451]",> 15000 nM
7,"C[C@@H](Nc1cccc(F)c1C(=O)O)c1cc(F)cc2c(=O)n(C)c(C3C[C@@H]3C(F)F)cc12 (single isomer, unassigned) [Example 475]",> 15000 nM

# Same assay, conditions: inhibition of proliferation, 72 hours
row,SMILES,EC50
1,"Cc1cc([C@@H](C)Nc2ccccc2C(=O)O)c2cc(C3C[C@H]3C(C)C)n(C)c(=O)c2c1 (single isomer, unassigned) [Example 312]",2000 to 15000 nM
2,"Cc1cc([C@@H](C)Nc2ccccc2C(=O)O)c2cc(C3C[C@H]3C)n(C)c(=O)c2c1 (single isomer, unassigned) [Example 313]",> 15000 nM
3,"COC[C@@H]1CC1c1cc2c([C@@H](C)Nc3ccccc3C(=O)O)cc(C)cc2c(=O)n1C (single isomer, unassigned) [Example 314]",> 15000 nM
4,"Cc1cc([C@@H](C)Nc2ccccc2C(=O)O)c2cc(C3C[C@H]3C3CC3)n(C)c(=O)c2c1 (single isomer, unassigned) [Example 315]",> 15000 nM
5,"Cc1cc([C@@H](C)Nc2cccc(F)c2C(=O)O)c2cc(C3C[C@H]3C)n(C)c(=O)c2c1 (single isomer, unassigned) [Example 356]",> 15000 nM
6,"Cc1cc(C(C)Nc2ccccc2C(=O)O)c2c(F)c(C3=CCN(CC(F)(F)F)CC3)n(C)c(=O)c2c1 (single isomer, unassigned) [Example 359]",> 15000 nM
7,"Cc1cc(C(C)Nc2ccccc2C(=O)O)c2c(F)c(C3=CCN(CC(F)(F)F)CC3)n(C)c(=O)c2c1 (single isomer, unassigned) [Example 360]",> 15000 nM

# Tested on: phosphorylation of AKT (pAKT) in T47D cells expressing mutant PI3Ka (H1047R)
# Experiment: In vitro cell pAKT (Ser473) HTRF, T47D cells
# Format: cell-based
# Conditions: Homo sapiens, T47D, 6 h, cellular pAKT, T47D cells, mutant PI3Ka (H1047R), 6 hours; read-out: Avg T-47D IC50
# Method in brief: (§2)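 T47D cells (RPMI, 10% FBS, 0.2 units/mL insulin) or SKBR3 cells (McCoy's 5a, 10% FBS) were seeded onto 10-point compound dilutions and incubated 6 h at 37 °C. After lysis, pAKT was detected overnight by HTRF (Eu cryptate/d2). IC50 was fitted from % inhibition relative to 0.1% DMSO and 10 uM alpelisib controls.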
row,SMILES,IC50
1,"Cc1cc([C@@H](C)Nc2cccc(F)c2C(=O)O)c2cc(C3C[C@H]3C)n(C)c(=O)c2c1 (single isomer, unassigned) [Example 355]",1 to 500 nM
2,"Cc1cc([C@@H](C)Nc2ccccc2C(=O)O)c2cc([C@H]3C[C@@H]3C(C)(C)O)n(C)c(=O)c2c1 (single isomer, unassigned) [Example 373]",1 to 500 nM
3,"Cc1cc([C@@H](C)Nc2ccccc2C(=O)O)c2cc(C3CC3(F)F)n(C)c(=O)c2c1 (single isomer, unassigned) [Example 384]",1 to 500 nM
4,"C[C@@H](Nc1cccc(F)c1C(=O)O)c1cc(F)cc2c(=O)n(C)c(C3C[C@@H]3C(F)(F)F)cc12 (single isomer, unassigned) [Example 427]",1 to 500 nM
5,"C[C@@H](Nc1ccccc1C(=O)O)c1cc(F)cc2c(=O)n(C)c(C3C[C@@H]3C3CC3)cc12 (single isomer, unassigned) [Example 449]",1 to 500 nM
6,"C[C@@H](Nc1ccccc1C(=O)O)c1cc(F)cc2c(=O)n(C)c(C3C[C@@H]3C(F)(F)F)cc12 (single isomer, unassigned) [Example 451]",1 to 500 nM
7,"C[C@@H](Nc1cccc(F)c1C(=O)O)c1cc(F)cc2c(=O)n(C)c(C3C[C@@H]3C(F)F)cc12 (single isomer, unassigned) [Example 475]",1 to 500 nM

# Same assay, conditions: cellular pAKT, T47D cells, mutant PI3Ka (H1047R), 6 hours; read-out: Avg T-47D IC50
row,SMILES,IC50
1,"Cc1cc([C@@H](C)Nc2ccccc2C(=O)O)c2cc(C3C[C@H]3C(C)C)n(C)c(=O)c2c1 (single isomer, unassigned) [Example 312]",1 to 500 nM
2,"Cc1cc([C@@H](C)Nc2ccccc2C(=O)O)c2cc(C3C[C@H]3C)n(C)c(=O)c2c1 (single isomer, unassigned) [Example 313]",1 to 500 nM
3,"COC[C@@H]1CC1c1cc2c([C@@H](C)Nc3ccccc3C(=O)O)cc(C)cc2c(=O)n1C (single isomer, unassigned) [Example 314]",1 to 500 nM
4,"Cc1cc([C@@H](C)Nc2ccccc2C(=O)O)c2cc(C3C[C@H]3C3CC3)n(C)c(=O)c2c1 (single isomer, unassigned) [Example 315]",1 to 500 nM
5,"Cc1cc([C@@H](C)Nc2cccc(F)c2C(=O)O)c2cc(C3C[C@H]3C)n(C)c(=O)c2c1 (single isomer, unassigned) [Example 356]",1 to 500 nM
6,"Cc1cc(C(C)Nc2ccccc2C(=O)O)c2c(F)c(C3=CCN(CC(F)(F)F)CC3)n(C)c(=O)c2c1 (single isomer, unassigned) [Example 359]",1 to 500 nM
7,"Cc1cc(C(C)Nc2ccccc2C(=O)O)c2c(F)c(C3=CCN(CC(F)(F)F)CC3)n(C)c(=O)c2c1 (single isomer, unassigned) [Example 360]",> 15000 nM

# Tested on: phosphorylation of AKT (pAKT) in SKBR3 cells express WT PI3Ka
# Experiment: In vitro cell pAKT (Ser473) HTRF, SKBR3 cells
# Format: cell-based
# Conditions: Homo sapiens, SK-BR-3, 6 h, cellular pAKT
# Method in brief: as §2
row,SMILES,IC50
1,"Cc1cc([C@@H](C)Nc2cccc(F)c2C(=O)O)c2cc(C3C[C@H]3C)n(C)c(=O)c2c1 (single isomer, unassigned) [Example 355]",> 15000 nM
2,"Cc1cc([C@@H](C)Nc2ccccc2C(=O)O)c2cc([C@H]3C[C@@H]3C(C)(C)O)n(C)c(=O)c2c1 (single isomer, unassigned) [Example 373]",> 15000 nM
3,"Cc1cc([C@@H](C)Nc2ccccc2C(=O)O)c2cc(C3CC3(F)F)n(C)c(=O)c2c1 (single isomer, unassigned) [Example 384]",> 15000 nM
4,"C[C@@H](Nc1cccc(F)c1C(=O)O)c1cc(F)cc2c(=O)n(C)c(C3C[C@@H]3C(F)(F)F)cc12 (single isomer, unassigned) [Example 427]",> 15000 nM
5,"C[C@@H](Nc1ccccc1C(=O)O)c1cc(F)cc2c(=O)n(C)c(C3C[C@@H]3C3CC3)cc12 (single isomer, unassigned) [Example 449]",> 15000 nM
6,"C[C@@H](Nc1ccccc1C(=O)O)c1cc(F)cc2c(=O)n(C)c(C3C[C@@H]3C(F)(F)F)cc12 (single isomer, unassigned) [Example 451]",> 15000 nM
7,"C[C@@H](Nc1cccc(F)c1C(=O)O)c1cc(F)cc2c(=O)n(C)c(C3C[C@@H]3C(F)F)cc12 (single isomer, unassigned) [Example 475]",> 15000 nM

# Same assay, conditions: cellular pAKT, 6 hours
row,SMILES,IC50
1,"Cc1cc([C@@H](C)Nc2ccccc2C(=O)O)c2cc(C3C[C@H]3C(C)C)n(C)c(=O)c2c1 (single isomer, unassigned) [Example 312]",> 15000 nM
2,"Cc1cc([C@@H](C)Nc2ccccc2C(=O)O)c2cc(C3C[C@H]3C)n(C)c(=O)c2c1 (single isomer, unassigned) [Example 313]",> 15000 nM
3,"COC[C@@H]1CC1c1cc2c([C@@H](C)Nc3ccccc3C(=O)O)cc(C)cc2c(=O)n1C (single isomer, unassigned) [Example 314]",> 15000 nM
4,"Cc1cc([C@@H](C)Nc2ccccc2C(=O)O)c2cc(C3C[C@H]3C3CC3)n(C)c(=O)c2c1 (single isomer, unassigned) [Example 315]",> 15000 nM
5,"Cc1cc([C@@H](C)Nc2cccc(F)c2C(=O)O)c2cc(C3C[C@H]3C)n(C)c(=O)c2c1 (single isomer, unassigned) [Example 356]",> 15000 nM
6,"Cc1cc(C(C)Nc2ccccc2C(=O)O)c2c(F)c(C3=CCN(CC(F)(F)F)CC3)n(C)c(=O)c2c1 (single isomer, unassigned) [Example 359]",> 15000 nM
7,"Cc1cc(C(C)Nc2ccccc2C(=O)O)c2c(F)c(C3=CCN(CC(F)(F)F)CC3)n(C)c(=O)c2c1 (single isomer, unassigned) [Example 360]",> 15000 nM
